# Values of other authors in US20090081312A1, “PREVENTION AND TREATMENT OF ALVEOLAR OSTEITIS” (priority 2007, published 2009).
# Tested on: bacterial cell growth
# Details: silver ion; B Gibbins, Ostomy Wound Management 2003
structure (smiles),measurement,value
"[Ag+] [silver ion, silver]",quantity sufficient to prevent bacterial cell growth,one
